Reference: patent publication US12544395B2, “Combination compositions comprising a beta-lactamase inhibitor and uses thereof” (priority 2018, dated 2026)

Experiments:
Assay type in all cases: cell-based
E. coli SI-V502 = experiment: Broth microdilution MIC (strain enzymes: TEM-29, CTX-M15)
E. coli SI-LP377 = experiment: microbe, parasite or virus in culture
E. coli 2150 = experiment: Broth microdilution MIC (strain enzymes: SHV-3, TEM-1)
K. pneumoniae 3151 = experiment: Broth microdilution MIC (strain enzymes: SHV-12, TEM-1)
K. pneumoniae 170375 = experiment: Broth microdilution MIC (strain enzymes: SHV-12, CTX-M15 and TEM-1)
K. pneumoniae 115468 = experiment: Broth microdilution MIC (strain enzymes: TEM-1)

`CCC(=O)N[C@H]1Cc2cccc(C(=O)O)c2OB1O` [Compound 2, (R)-2-hydroxy-3-propionamido-3,4-dihydro-2H-benzo[e][1,2]oxaborinine-8-carboxylic acid] was tested, and the “MIC of cefixime (CFM)” value (E. coli SI-V502; with inhibitor at 2 μg/mL) was 0.5 µg/mL, the “MIC of ceftibuten (CTB)” value (E. coli SI-V502; with inhibitor at 2 μg/mL) was 0.25 µg/mL and the “MIC of cefalexin (LEX)” value (E. coli SI-V502; with inhibitor at 4 μg/mL) was 0.5 µg/mL. For the same molecule, the “MIC of cefdinir (CDR)” value (E. coli SI-V502; with inhibitor at 4 μg/mL) was 0.5 µg/mL, the “MIC of cefixime (CFM)” value (E. coli SI-V502; with inhibitor at 4 μg/mL) was 0.25 µg/mL and the “MIC of ceftibuten (CTB)” value (E. coli SI-V502; with inhibitor at 4 μg/mL) was 0.125 µg/mL. For the same molecule, the “MIC of cefalexin (LEX)” value (E. coli SI-LP377; with inhibitor at 1 μg/mL) was 4 µg/mL, the “MIC of cefdinir (CDR)” value (E. coli SI-LP377; with inhibitor at 1 μg/mL) was 4 µg/mL and the “MIC of cefixime (CFM)” value (E. coli SI-LP377; with inhibitor at 1 μg/mL) was 0.5 µg/mL. For the same molecule, the “MIC of ceftibuten (CTB)” value (E. coli SI-LP377; with inhibitor at 1 μg/mL) was 0.125 µg/mL, the “MIC of cefalexin (LEX)” value (E. coli SI-LP377; with inhibitor at 2 μg/mL) was 1 µg/mL and the “MIC of cefdinir (CDR)” value (E. coli SI-LP377; with inhibitor at 2 μg/mL) was 1 µg/mL. The “MIC of cefixime (CFM)” value (E. coli SI-LP377; with inhibitor at 2 μg/mL) was 0.25 µg/mL, the “MIC of ceftibuten (CTB)” value (E. coli SI-LP377; with inhibitor at 2 μg/mL) was 0.125 µg/mL and the “MIC of cefalexin (LEX)” value (E. coli SI-LP377; with inhibitor at 4 μg/mL) was 1 µg/mL. For the same molecule, the “MIC of cefdinir (CDR)” value (E. coli SI-LP377; with inhibitor at 4 μg/mL) was 1 µg/mL, the “MIC of cefixime (CFM)” value (E. coli SI-LP377; with inhibitor at 4 μg/mL) was 0.125 µg/mL and the “MIC of ceftibuten (CTB)” value (E. coli SI-LP377; with inhibitor at 4 μg/mL) was 0.125 µg/mL. The “MIC of cefalexin (LEX)” value (E. coli 2150; with inhibitor at 1 μg/mL) was 1 µg/mL, the “MIC of cefdinir (CDR)” value (E. coli 2150; with inhibitor at 1 μg/mL) was 1 µg/mL and the “MIC of cefixime (CFM)” value (E. coli 2150; with inhibitor at 1 μg/mL) was 0.5 µg/mL. For the same molecule, the “MIC of ceftibuten (CTB)” value (E. coli 2150; with inhibitor at 1 μg/mL) was 0.125 µg/mL, the “MIC of cefalexin (LEX)” value (E. coli 2150; with inhibitor at 2 μg/mL) was 0.5 µg/mL and the “MIC of cefdinir (CDR)” value (E. coli 2150; with inhibitor at 2 μg/mL) was 0.5 µg/mL. For the same molecule, the “MIC of cefixime (CFM)” value (E. coli 2150; with inhibitor at 2 μg/mL) was 0.5 µg/mL, the “MIC of ceftibuten (CTB)” value (E. coli 2150; with inhibitor at 2 μg/mL) was 0.125 µg/mL and the “MIC of cefalexin (LEX)” value (E. coli 2150; with inhibitor at 4 μg/mL) was 0.5 µg/mL. The “MIC of cefdinir (CDR)” value (E. coli 2150; with inhibitor at 4 μg/mL) was 0.5 µg/mL, the “MIC of cefixime (CFM)” value (E. coli 2150; with inhibitor at 4 μg/mL) was 0.25 µg/mL and the “MIC of ceftibuten (CTB)” value (E. coli 2150; with inhibitor at 4 μg/mL) was 0.06 µg/mL. For the same molecule, the “MIC of cefalexin (LEX)” value (K. pneumoniae 3151; with inhibitor at 1 μg/mL) was 2 µg/mL, the “MIC of cefdinir (CDR)” value (K. pneumoniae 3151; with inhibitor at 1 μg/mL) was 2 µg/mL and the “MIC of cefixime (CFM)” value (K. pneumoniae 3151; with inhibitor at 1 μg/mL) was 16 µg/mL. The “MIC of ceftibuten (CTB)” value (K. pneumoniae 3151; with inhibitor at 1 μg/mL) was 1 µg/mL, the “MIC of cefalexin (LEX)” value (K. pneumoniae 3151; with inhibitor at 2 μg/mL) was 1 µg/mL and the “MIC of cefdinir (CDR)” value (K. pneumoniae 3151; with inhibitor at 2 μg/mL) was 1 µg/mL. For the same molecule, the “MIC of cefixime (CFM)” value (K. pneumoniae 3151; with inhibitor at 2 μg/mL) was 8 µg/mL, the “MIC of ceftibuten (CTB)” value (K. pneumoniae 3151; with inhibitor at 2 μg/mL) was 0.25 µg/mL and the “MIC of cefalexin (LEX)” value (K. pneumoniae 3151; with inhibitor at 4 μg/mL) was 0.5 µg/mL. For the same molecule, the “MIC of cefdinir (CDR)” value (K. pneumoniae 3151; with inhibitor at 4 μg/mL) was 0.5 µg/mL, the “MIC of cefixime (CFM)” value (K. pneumoniae 3151; with inhibitor at 4 μg/mL) was 2 µg/mL and the “MIC of ceftibuten (CTB)” value (K. pneumoniae 3151; with inhibitor at 4 μg/mL) was 0.25 µg/mL. For the same molecule, the “MIC of cefalexin (LEX)” value (K. pneumoniae 170375; with inhibitor at 1 μg/mL) was 8 µg/mL, the “MIC of cefdinir (CDR)” value (K. pneumoniae 170375; with inhibitor at 1 μg/mL) was 8 µg/mL and the “MIC of cefixime (CFM)” value (K. pneumoniae 170375; with inhibitor at 1 μg/mL) was 1 µg/mL. The “MIC of ceftibuten (CTB)” value (K. pneumoniae 170375; with inhibitor at 1 μg/mL) was 0.06 µg/mL, the “MIC of cefalexin (LEX)” value (K. pneumoniae 170375; with inhibitor at 2 μg/mL) was 4 µg/mL and the “MIC of cefdinir (CDR)” value (K. pneumoniae 170375; with inhibitor at 2 μg/mL) was 4 µg/mL. For the same molecule, the “MIC of cefixime (CFM)” value (K. pneumoniae 170375; with inhibitor at 2 μg/mL) was 1 µg/mL, the “MIC of ceftibuten (CTB)” value (K. pneumoniae 170375; with inhibitor at 2 μg/mL) was 0.06 µg/mL and the “MIC of cefalexin (LEX)” value (K. pneumoniae 170375; with inhibitor at 4 μg/mL) was 2 µg/mL. For the same molecule, the “MIC of cefdinir (CDR)” value (K. pneumoniae 170375; with inhibitor at 4 μg/mL) was 2 µg/mL, the “MIC of cefixime (CFM)” value (K. pneumoniae 170375; with inhibitor at 4 μg/mL) was 1 µg/mL and the “MIC of ceftibuten (CTB)” value (K. pneumoniae 170375; with inhibitor at 4 μg/mL) was 0.06 µg/mL. The “MIC of cefalexin (LEX)” value (K. pneumoniae 115468; with inhibitor at 1 μg/mL) was 0.5 µg/mL, the “MIC of cefdinir (CDR)” value (K. pneumoniae 115468; with inhibitor at 1 μg/mL) was 0.5 µg/mL and the “MIC of cefixime (CFM)” value (K. pneumoniae 115468; with inhibitor at 1 μg/mL) was 2 µg/mL. For the same molecule, the “MIC of ceftibuten (CTB)” value (K. pneumoniae 115468; with inhibitor at 1 μg/mL) was 0.06 µg/mL, the “MIC of cefalexin (LEX)” value (K. pneumoniae 115468; with inhibitor at 2 μg/mL) was 0.25 µg/mL and the “MIC of cefdinir (CDR)” value (K. pneumoniae 115468; with inhibitor at 2 μg/mL) was 0.25 µg/mL. The “MIC of cefixime (CFM)” value (K. pneumoniae 115468; with inhibitor at 2 μg/mL) was 0.5 µg/mL, the “MIC of ceftibuten (CTB)” value (K. pneumoniae 115468; with inhibitor at 2 μg/mL) was 0.06 µg/mL and the “MIC of cefalexin (LEX)” value (K. pneumoniae 115468; with inhibitor at 4 μg/mL) was 0.125 µg/mL.
